Source: patent publication US20170121315A1, “HETEROBICYCLICALLY SUBSTITUTED 4-OXOBUTANE ACID DERIVATIVES AND USE THEREOF” (priority 2014, published 2017)
pIC50: −log10 of the molar value.

target: T1, human macrophage elastase (HME/hMMP-12) (Homo sapiens, UniProt P39900); assay: In vitro HME inhibition test (standard or high-sensitivity); type: biochemical; settings: in some cases mean values, rounded to two significant figures
T1 construct: purchased R&D Systems 917-MP
Method in brief: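 Autoactivated HME (0.5 nM; high-sensitivity format 0.05 nM, ~16 h) with 5 μM quenched Mca-PLGLEEA-Dap(Dnp)-NH2 substrate in HEPES pH 7.4, NaCl, CaCl2, ZnCl2, EDTA, Brij buffer, 2 h at 37° C. Fluorescence at ex 323/em 393 nm; IC50 from signal versus concentration.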

T1 sequence (P39900 106-470): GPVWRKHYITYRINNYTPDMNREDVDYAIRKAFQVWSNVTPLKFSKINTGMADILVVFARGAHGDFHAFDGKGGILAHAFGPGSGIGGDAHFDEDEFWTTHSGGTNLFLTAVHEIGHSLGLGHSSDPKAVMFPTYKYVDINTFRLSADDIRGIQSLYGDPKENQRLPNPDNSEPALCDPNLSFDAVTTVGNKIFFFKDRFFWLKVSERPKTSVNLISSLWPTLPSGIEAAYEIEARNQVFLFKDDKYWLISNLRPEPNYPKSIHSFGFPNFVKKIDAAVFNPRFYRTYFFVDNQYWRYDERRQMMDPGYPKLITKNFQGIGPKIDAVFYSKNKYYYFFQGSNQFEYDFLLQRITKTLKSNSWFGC

Going from O=C(CC(CCn1nnc2ccccc2c1=O)C(=O)O)c1cc2cc(OCc3ccc(Cl)c(Cl)c3)ccc2o1 (single isomer, unassigned; (+)) [Example 27, (+)-4-{5-[(3,4-Dichlorobenzyl)oxy]-1-benzofur-2-yl}-4-oxo-2-[2-(4-oxo-1,2,3-benzotriazin-3(4H)-yl)ethyl]butanoic acid] to O=C(CC(CCn1nnc2ccccc2c1=O)C(=O)O)c1cc2cc(OCc3ccc(F)cc3)ccc2o1 (single isomer, unassigned; (-)) [Example 24, (−)-4-{5-[(4-Fluorobenzyl)oxy]-1-benzofur-2-yl}-4-oxo-2-[2-(4-oxo-1,2,3-benzotriazin-3(4H)-yl)ethyl]butanoic acid], the pIC50 falls from 9.72 to 6.68 (3.04 log units). The first is the more potent here.

First: CCCCOc1ccc2cc(C(=O)CC(CCn3nnc4ccccc4c3=O)C(=O)O)oc2c1 (single isomer, unassigned; (+)) [Example 63, (+)-4-(6-Butoxy-1-benzofur-2-yl)-4-oxo-2-[2-(4-oxo-1,2,3-benzotriazin-3(4H)-yl)ethyl]butanoic acid]
Second: CCCCCOc1ccc2cc(C(=O)CC(CCn3nnc4ccccc4c3=O)C(=O)O)oc2c1 (single isomer, unassigned; (-)) [Example 56, (−)-4-Oxo-2-[2-(4-oxo-1,2,3-benzotriazin-3(4H)-yl)ethyl]-4-[6-(pentyloxy)-1-benzofur-2-yl]butanoic acid]
The pIC50 of the first is 2.81 log units higher: 8.66 for the first, 5.85 for the second. The first is the more potent here.

Going from CCCCCCOc1ccc2cc(C(=O)CC(CCn3nnc4ccccc4c3=O)C(=O)O)oc2c1 (single isomer, unassigned; (+)) [Example 66, (+)-4-[6-(Hexyloxy)-1-benzofur-2-yl]-4-oxo-2-[2-(4-oxo-1,2,3-benzotriazin-3(4H)-yl)ethyl]butanoic acid] to CCCCCCCOc1ccc2cc(C(=O)CC(CCn3nnc4ccccc4c3=O)C(=O)O)oc2c1 (single isomer, unassigned; (-)) [Example 68, (−)-4-[6-(Heptyloxy)-1-benzofur-2-yl]-4-oxo-2-[2-(4-oxo-1,2,3-benzotriazin-3(4H)-yl)ethyl]butanoic acid], the pIC50 falls from 8.62 to 6.05 (2.57 log units). The first is the more potent here.

Going from O=C(CC(CCn1nnc2ccccc2c1=O)C(=O)O)c1coc2cc(OCc3ccccc3)ccc12 (single isomer, unassigned; (+)) [Example 85, (+)-4-[6-(Benzyloxy)-1-benzofur-3-yl]-4-oxo-2-[2-(4-oxo-1,2,3-benzotriazin-3(4H)-yl)ethyl]butanoic acid] to O=C(CC(CCn1nnc2ccccc2c1=O)C(=O)O)c1cc2cc(OCc3ccccc3)ccc2o1 (single isomer, unassigned; (-)) [Example 29, (−)-4-[5-(Benzyloxy)-1-benzofur-2-yl]-4-oxo-2-[2-(4-oxo-1,2,3-benzotriazin-3(4H)-yl)ethyl]butanoic acid], the pIC50 falls from 9.42 to 6.11 (3.31 log units). The first is the more potent here.

First: CCCOc1ccc2c(C(=O)CC(CCn3nnc4ccccc4c3=O)C(=O)O)coc2c1 (single isomer, unassigned; (+)) [Example 88, (+)-4-Oxo-2-[2-(4-oxo-1,2,3-benzotriazin-3(4H)-yl)ethyl]-4-(6-propoxy-1-benzofur-3-yl)butanoic acid]
Second: CCCCOc1ccc2c(C(=O)CC(CCn3nnc4ccccc4c3=O)C(=O)O)coc2c1 (single isomer, unassigned; (+)) [Example 108, (+)-4-(6-Butoxy-1-benzofur-3-yl)-4-oxo-2-[2-(4-oxo-1,2,3-benzotriazin-3(4H)-yl)ethyl]butanoic acid]
The pIC50 of the first is 0.68 log units lower: 8.96 for the first, 9.64 for the second.

Going from O=C(CC(CCn1nnc2ccccc2c1=O)C(=O)O)c1coc2cc(OCC3CCOCC3)ccc12 (single isomer, unassigned; (+)) [Example 96, (+)-4-Oxo-2-[2-(4-oxo-1,2,3-benzotriazin-3(4H)-yl)ethyl]-4-[6-(tetrahydro-2H-pyran-4-ylmethoxy)-1-benzofur-3-yl]butanoic acid] to O=C(CC(CCn1nnc2ccccc2c1=O)C(=O)O)c1coc2cc(OCC3CCCC3)ccc12 (single isomer, unassigned; (-)) [Example 79, (−)-4-[6-(Cyclopentylmethoxy)-1-benzofur-3-yl]-4-oxo-2-[2-(4-oxo-1,2,3-benzotriazin-3(4H)-yl)ethyl]butanoic acid], the pIC50 falls from 9.09 to 5.72 (3.37 log units). The first is the more potent here.

First: CCCCCCCOc1ccc2c(C(=O)CC(CCn3nnc4ccccc4c3=O)C(=O)O)coc2c1 (single isomer, unassigned; (+)) [Example 103, (+)-4-[6-(Heptyloxy)-1-benzofur-3-yl]-4-oxo-2-[2-(4-oxo-1,2,3-benzotriazin-3(4H)-yl)ethyl]butanoic acid acid]
Second: CCCOc1ccc2c(C(=O)CC(CCn3nnc4ccccc4c3=O)C(=O)O)coc2c1 (single isomer, unassigned; (-)) [Example 87, (−)-4-Oxo-2-[2-(4-oxo-1,2,3-benzotriazin-3(4H)-yl)ethyl]-4-(6-propoxy-1-benzofur-3-yl)butanoic acid]
The pIC50 of the first is 3.31 log units higher: 9.64 for the first, 6.33 for the second. The first is the more potent here.

Compared with CC(C)COc1ccc2c(C(=O)CC(CCn3nnc4ccccc4c3=O)C(=O)O)coc2c1 (single isomer, unassigned; (+)) [Example 105, (+)-4-(6-Isobutoxy-1-benzofur-3-yl)-4-oxo-2-[2-(4-oxo-1,2,3-benzotriazin-3(4H)-yl)ethyl]butanoic acid], O=C(CC(CCn1nnc2ccccc2c1=O)C(=O)O)c1coc2cc(OCC3CCCCC3)ccc12 (single isomer, unassigned; (-)) [Example 83, (−)-4-[6-(Cyclohexylmethoxy)-1-benzofur-3-yl]-4-oxo-2-[2-(4-oxo-1,2,3-benzotriazin-3(4H)-yl)ethyl]butanoic acid] is 0.83 log units lower in pIC50: 9.68 for the first, 8.85 for the second.

First: O=C(CC(CCn1nnc2ccccc2c1=O)C(=O)O)c1cc2cc(OCCc3ccccc3)ccc2o1 (single isomer, unassigned; (-)) [Example 20, (−)-4-Oxo-2-[2-(4-oxo-1,2,3-benzotriazin-3(4H)-yl)ethyl]-4-[5-(2-phenylethoxy)-1-benzofur-2-yl]butanoic acid]
Second: NC(=O)c1cccc(COc2ccc3oc(C(=O)CC(CCn4nnc5ccccc5c4=O)C(=O)O)cc3c2)c1 (single isomer, unassigned; (-)) [Example 33, (−)-4-{5-[(3-Carbamoylbenzyl)oxy]-1-benzofur-2-yl}-4-oxo-2-[2-(4-oxo-1,2,3-benzotriazin-3(4H)-yl)ethyl]butanoic acid]
The pIC50 of the first is 0.39 log units lower: 6.07 for the first, 6.46 for the second.

Compared with O=C(CC(CCn1nnc2ccccc2c1=O)C(=O)O)c1cc2cc(OCc3ccc(Cl)c(Cl)c3)ccc2o1 (single isomer, unassigned; (-)) [Example 26, (−)-4-{5-[(3,4-Dichlorobenzyl)oxy]-1-benzofur-2-yl}-4-oxo-2-[2-(4-oxo-1,2,3-benzotriazin-3(4H)-yl)ethyl]butanoic acid], CCCCOc1ccc2cc(C(=O)CC(CCn3nnc4ccccc4c3=O)C(=O)O)oc2c1 (single isomer, unassigned; (-)) [Example 62, (−)-4-(6-Butoxy-1-benzofur-2-yl)-4-oxo-2-[2-(4-oxo-1,2,3-benzotriazin-3(4H)-yl)ethyl]butanoic acid] is 0.56 log units lower in pIC50: 6.80 for the first, 6.24 for the second.

With CCCCCCOc1ccc2cc(C(=O)CC(CCn3nnc4ccccc4c3=O)C(=O)O)oc2c1 (single isomer, unassigned; (-)) [Example 65, (−)-4-[6-(Hexyloxy)-1-benzofur-2-yl]-4-oxo-2-[2-(4-oxo-1,2,3-benzotriazin-3(4H)-yl)ethyl]butanoic acid] the pIC50 was 6.47.
